From publication PMC3587609, “A Novel Cell-Penetrating Peptide Derived from Human Eosinophil Cationic Protein” (PLoS ONE, 2013)

Experiments:
CHO pgsD-677 cells = assay: Internalization into HS-deficient CHO cells (flow cytometry and CLSM); type: cell-based, Chinese hamster; details: CHO pgsD677 cells, 5 µM FITC-ECP32–41, 37°C, 1 h
Procedure: (§1) Figure 3 HS-dependent ECP^32–-41 internalization. […] (B) Samples of wild-type and mutant CHO cells were each incubated with 5 µM FITC-ECP^32–41 at 37°C for 1 h and then subjected to flow cytometry. (C) Samples of wild-type and mutant CHO cells were incubated with 5 µM FITC-ECP^32–41 at 37°C for 1 h., then washed twice with 1 ml PBS, and fixed for CLSM. Nuclei were stained with Hoechst 34850. Scale bar: 20 µm. (D) Beas-2B cells were treated with heparinase I, heparinase III, or chondroitinase ABC for 2 h prior to incubation with 5 µM FITC-ECP^32–41 at 37°C for 1 h. […] Untreated cells served as the controls. The fluorescence of cells treated with FITC-ECP^32–41 was set to 100%. […] (E) Beas-2B cells were treated with heparinase I, heparinase III, or chondroitinase ABC for 2 h. […] Untreated cells served as the control. The fluorescence of the untreated cells was set to 100%.
(§2) Cells (3.0×10^5/well) were added into six-well plates and cultured in the indicated medium. After 24 h, each FITC-peptide, dissolved in medium, was added into a well and the samples incubated for 1 h. Cells were then harvested, washed, and suspended in PBS. The fluorescent intensities of the cell samples were measured using a FACSCalibur flow cytometer (BD Biosciences, Franklin Lakes, NJ) and excitation and emission wavelengths of 488 nm and 515–545 nm respectively. […]

CHO pgsA-745 cells = assay: Internalization into GAG-deficient CHO cells (flow cytometry and CLSM); type: cell-based, Chinese hamster; details: CHO pgsA745 cells, 5 µM FITC-ECP32–41, 37°C, 1 h
Procedure: as §1, §2

[1] = Circular dichroism spectroscopy; type: physicochemical; details: data not shown

## NYRWRCKNQN [ECP^32–41]
CHO pgsD-677 cells
  internalization monitored by CLSM: but not for CHO pgsD677 or pgsA745 cells
CHO pgsA-745 cells
  internalization monitored by CLSM: but not for CHO pgsD677 or pgsA745 cells
[1]
  secondary structure by circular dichroism spectroscopy: random coil
